Experiments:
[1] = molecular target: T1, human Smo (amino acids 181-787) (Homo sapiens, UniProt Q99835); experiment: Smo radioligand competition binding assay (displacement of 3H-PF-03451358 from HEK293 membranes); settings: for inhibition at 0.05 µM: 0.05 μM test compound, displacement of 3H-PF-03451358, read-out: SMO % inh. @ 0.05 μM; for IC50: radioligand competition binding
T1 construct: expressed in transfected cells; membrane preparation
In short: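 Displacement of 3 nM tritiated PF-03451358 measured by filtration and scintillation counting after 2 h at room temperature, using 40 μg/well HEK293 membranes bearing cell-surface Smo 181-787, pH 7.5 buffer. Specific binding defined against 30 μM unlabelled ligand; IC50 via variable-slope sigmoidal fit.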

Gli-Luc/MEF cells (Smo) = experiment: Gli-Luc/MEF assay (Shh-stimulated luciferase reporter under the Gli response element); format: cell-based, mouse
In short: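 IC50 derived from luminescence (Bright-Glo) after 48 h at 37° C, 5% CO2, with compound at […] (3-fold dilutions) added together with mouse Shh at 2 μg/mL final. Cells: MEFs from Gli-Luc transgenic mice.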

T1 sequence (Q99835 181-787): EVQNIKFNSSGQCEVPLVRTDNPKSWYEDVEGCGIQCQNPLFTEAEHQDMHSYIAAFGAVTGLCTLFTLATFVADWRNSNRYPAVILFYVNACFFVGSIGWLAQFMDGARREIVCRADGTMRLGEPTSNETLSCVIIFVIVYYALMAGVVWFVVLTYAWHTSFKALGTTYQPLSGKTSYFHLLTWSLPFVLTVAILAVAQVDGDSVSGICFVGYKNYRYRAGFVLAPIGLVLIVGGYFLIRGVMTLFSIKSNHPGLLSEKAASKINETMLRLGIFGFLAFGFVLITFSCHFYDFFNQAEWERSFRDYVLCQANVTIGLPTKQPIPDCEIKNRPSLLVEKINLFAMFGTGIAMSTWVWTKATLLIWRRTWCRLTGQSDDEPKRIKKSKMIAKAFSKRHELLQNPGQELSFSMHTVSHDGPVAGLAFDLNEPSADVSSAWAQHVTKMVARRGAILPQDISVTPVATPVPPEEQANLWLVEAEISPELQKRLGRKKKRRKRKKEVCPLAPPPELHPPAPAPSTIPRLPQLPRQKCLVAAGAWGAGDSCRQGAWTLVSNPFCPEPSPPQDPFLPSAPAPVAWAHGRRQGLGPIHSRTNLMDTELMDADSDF

Structure (SMILES)	inhibition at 0.05 µM [1] [%]	IC50 [1] [nM]	IC50 (Gli-Luc/MEF cells (Smo); Mus musculus, MEF, 48 h) [nM]	IC50 (Gli-Luc/MEF cells (Smo); 48 hours) [nM]
Cn1c(-c2cc(N3CCC4(CCCC(=O)N4)CC3)ncc2Cl)nc2ccccc21 [Example A-57, 9-[5-chloro-4-(1-methyl-1H-benzimidazol-2-yl)pyridin-2-yl]-1,9-diazaspiro[5.5]undecan-2-one]	97	20	7	
Cn1c(-c2cc(N3[C@@H]4CC[C@H]3CN(C(=O)CO)C4)ncc2Cl)nc2ccccc21 [Example A-207, 2-{(1R,5S)-8-[5-chloro-4-(1-methyl-1H-benzimidazol-2-yl)pyridin-2-yl]-3,8-diazabicyclo[3.2.1]oct-3-yl}-2-oxoethanol]	94	10	17.3	
Cn1c(-c2cc(N3CCN(C(=O)CO)CC3)ncc2F)nc2ccccc21 [Example D-17, 1-{4-[5-fluoro-4-(1-methyl-1H-benzimidazol-2-yl)pyridin-2-yl]piperazin-1-yl}-2-hydroxyethanone]	96	15	13	
Cn1c(-c2cc(N3CCC(CS(C)(=O)=O)CC3)ncc2Cl)nc2cccnc21 [Example A-216, 2-(5-chloro-2-{4-[(methylsulfonyl)methyl]piperidin-1-yl}pyridin-4-yl)-3-methyl-3H-imidazo[4,5-b]pyridine]	98	10	7	
Cn1c(-c2cc(N3CCS(=O)(=O)CC3)ncc2Cl)nc2ccccc21 [Example A-89, 2-[5-chloro-2-(1,1-dioxidothiomorpholin-4-yl)pyridin-4-yl]-1-methyl-1H-benzimidazole]	88	40	44	
COCc1nc(C2CCN(c3cc(-c4nc5ccccc5n4C)c(Cl)cn3)CC2)no1 [Example A-49, 2-(5-chloro-2-{4-[5-(methoxymethyl)-1,2,4-oxadiazol-3-yl]piperidin-1-yl}pyridin-4-yl)-1-methyl-1H-benzimidazole]	100	11	7	
CN(C)C(=O)COC1CCN(c2cc(-c3nc4ccccc4n3C)c(Cl)cn2)C1 (stereo in doubt) [Example A-126, 2-({(3R)-1-[5-chloro-4-(1-methyl-1H-benzimidazol-2-yl)pyridin-2-yl]pyrrolidin-3-yl}oxy)-N,N-dimethylacetamide]	57		109	
CC(=O)NC1CCN(c2cc(-c3nc4ccccc4n3C)c(Cl)cn2)C1 (centres unmarked) [Example A-42, N-{1-[5-chloro-4-(1-methyl-1H-benzimidazol-2-yl)pyridin-2-yl]pyrrolidin-3-yl}acetamide]	72	131	92	
CN(C1CCN(c2cc(-c3nc4ccccc4n3C)c(Cl)cn2)CC1)S(C)(=O)=O [Example A-6, N-{1-[5-chloro-4-(1-methyl-1H-benzimidazol-2-yl)pyridin-2-yl]piperidin-4-yl}-N-methylmethanesulfonamide]	96		3	
COC(=O)NC1CCN(c2cc(-c3nc4ccccc4n3C)ccn2)CC1 [Example A-19, methyl {1-[4-(1-methyl-1H-benzimidazol-2-yl)pyridin-2-yl]piperidin-4-yl}carbamate]	84	25	15	
Cn1c(-c2cc(N3CCN(CCS(C)(=O)=O)CC3)ncc2Cl)nc2ccccc21 [Example A-206, 2-(5-chloro-2-{4-[2-(methylsulfonyl)ethyl]piperazin-1-yl}pyridin-4-yl)-1-methyl-1H-benzimidazole]	99	17		17.1
Cn1c(-c2cc(N3CCC(S(C)(=O)=O)C3)ncc2Cl)nc2ccccc21 (centres unmarked) [Example A-24, 2-{5-chloro-2-[3-(methylsulfonyl)pyrrolidin-1-yl]pyridin-4-yl}-1-methyl-1H-benzimidazole]	82	54	20	
COC(=O)N1CCN(c2ncc(Cl)c(-c3nc4ccccc4n3C)n2)CC1 [Example C-5, Methyl 4-[5-chloro-4-(1-methyl-1H-benzimidazol-2-yl)pyrimidin-2-yl]piperazine-1-carboxylate]	96	14	9	
CC(=O)N1CCN(c2cc(-c3nc4ccccc4n3C)ccn2)CC1 [Example A-29, 2-[2-(4-acetylpiperazin-1-yl)pyridin-4-yl]-1-methyl-1H-benzimidazole]	78	61	110	
COCCS(=O)(=O)NC1CN(c2cc(-c3nc4ccccc4n3C)c(Cl)cn2)C1 [Example A-195, N-{1-[5-chloro-4-(1-methyl-1H-benzimidazol-2-yl)pyridin-2-yl]azetidin-3-yl}-2-methoxyethanesulfonamide]	101	9.5	4.9	
CCn1nnnc1C1CN(c2cc(-c3nc4ccccc4n3C)c(Cl)cn2)CCO1 (centres unmarked) [Example A-71, 2-{5-chloro-2-[2-(1-ethyl-1H-tetrazol-5-yl)morpholin-4-yl]pyridin-4-yl}-1-methyl-1H-benzimidazole]	94	18	10	
Cn1c(-c2cc(N3CCC(OCCO)CC3)ncc2Cl)nc2ccccc21 [Example A-79, 2-({1-[5-chloro-4-(1-methyl-1H-benzimidazol-2-yl)pyridin-2-yl]piperidin-4-yl}oxy)ethanol]	92	23	7	
Cn1c(-c2cc(N3CCc4[nH]cnc4C3)ncc2Cl)nc2ccccc21 [Example A-107, 5-[5-chloro-4-(1-methyl-1H-benzimidazol-2-yl)pyridin-2-yl]-4,5,6,7-tetrahydro-1H-imidazo[4,5-c]pyridine]	77	123	37	
CNC(=O)NC1CCN(c2cc(-c3nc4ccccc4n3C)c(Cl)cn2)C1 (centres unmarked) [Example A-176, 1-{1-[5-chloro-4-(1-methyl-1H-benzimidazol-2-yl)pyridin-2-yl]pyrrolidin-3-yl}-3-methylurea]	82	84	22	
Cc1nnc2n1CCN(c1cc(-c3nc4ccccc4n3C)c(Cl)cn1)C2 [Example A-117, 7-[5-chloro-4-(1-methyl-1H-benzimidazol-2-yl)pyridin-2-yl]-3-methyl-5,6,7,8-tetrahydro[1,2,4]triazolo[4,3-a]pyrazine]	68		101	
Cn1c(-c2cc(N3CCN4C[C@H](O)CC4C3)ncc2Cl)nc2ccccc21 (stereo in doubt) [Example A-92, (7R,8aR)-2-[5-chloro-4-(1-methyl-1H-benzimidazol-2-yl)pyridin-2-yl]octahydropyrrolo[1,2-a]pyrazin-7-ol]	88	79	46	
CNC(=O)N1CCN(c2cc(-c3nc4ccccc4n3C)ccn2)CC1 [Example A-144, N-methyl-4-[4-(1-methyl-1H-benzimidazol-2-yl)pyridin-2-yl]piperazine-1-carboxamide]	78	90	159	
Cn1c(-c2cc(N3CCOCC(CO)C3)ncc2Cl)nc2ccccc21 (centres unmarked) [Example A-47, {4-[5-chloro-4-(1-methyl-1H-benzimidazol-2-yl)pyridin-2-yl]-1,4-oxazepan-6-yl}methanol]	101	9	7	
CN(CCNS(C)(=O)=O)c1cc(-c2nc3ccccc3n2C)c(Cl)cn1 [Example A-145, N-(2-{[5-chloro-4-(1-methyl-1H-benzimidazol-2-yl)pyridin-2-yl](methyl)amino}ethyl)methanesulfonamide]	97	22	22	
CC(=O)NC1CCN(c2cc(-c3nc4ccccc4n3C)c(Cl)cn2)C1 (stereo in doubt) [Example A-116, N-{(3R)-1-[5-chloro-4-(1-methyl-1H-benzimidazol-2-yl)pyridin-2-yl]pyrrolidin-3-yl}acetamide]	68		86	
Cn1c(-c2cc(N3CCC(NS(C)(=O)=O)CC3)ncc2F)nc2ccccc21 [Example D-11, N-{1-[5-fluoro-4-(1-melhyl-1H-benzimidazol-2-yl)pyridin-2-yl]piperidin-4-yl}methanesulfonamide]	98	6	4.2	
Cn1c(-c2ccnc(N3CCCN(S(C)(=O)=O)CC3)c2)nc2ccccc21 [Example A-14, 1-methyl-2-{2-[4-(methylsulfonyl)-1,4-diazepan-1-yl]pyridin-4-yl}-1H-benzimidazole]	84	31	84	
CC1C(=O)NCCN1c1cc(-c2nc3ccccc3n2C)c(Cl)cn1 (centres unmarked) [Example A-171, 4-[5-chloro-4-(1-methyl-1H-benzimidazol-2-yl)pyridin-2-yl]-3-methylpiperazin-2-one]	97	31	28	
Cn1c(-c2nc(N3CCN(S(C)(=O)=O)CC3)ncc2Cl)nc2ccccc21 [Example C-3, 2-{5-Chloro-2-[4-(methylsulfonyl)piperazin-1-yl]pyrimidin-4-yl}-1-methyl-1H-benzimidazole]	96	9	19	
Cn1c(-c2cc(N3CC(CS(C)(=O)=O)C3)ncc2Cl)nc2ccccc21 [Example A-211, 2-(5-chloro-2-{3-[(methylsulfonyl)methyl]azetidin-1-yl}pyridin-4-yl)-1-methyl-1H-benzimidazole]	104	36	28.4	
